Test results published in US20260027244A1, “SILICON-BASED FLUORIDE ACCEPTOR GROUPS FOR RADIOPHARMACEUTICALS” (Technische Universität München, priority 2022, published 2026).
Like-named read-outs stand apart in the source and are kept apart here.

What was measured:
[1] = biological target: T1, human serum albumin (HSA) (Homo sapiens, UniProt P02768); conditions: HSA binding values obtained from literature; cited from earlier work
[2] = biological target: T1, human serum albumin (HSA); experiment: HSA binding of reference substances from literature (HPAC calibration); conditions: logarithmic value of HSA binding values
Procedure: HSA binding of the PSMA-addressing ligands by HPAC was determined according to a previously published procedure via HPLC. […] Mobile phase A was a freshly prepared 50 mM aqueous solution of NH4OAc (pH 6.9) and mobile phase B was isopropanol (HPLC grade, VWR). The applied gradient for all experiments was 100% A (0 to 3 min), followed by 80% A (3 to 40 min). […] (12,13). All substances were dissolved in a 1:1 mixture (v/v) of isopropanol and a 50 mM aqueous solution of NH4OAc (pH 6.9) with a final concentration of 0.5 mg/mL. Non-linear regression was established with the OriginPro 2016G software (Northampton, United States).

PSMA = biological target: T2, PSMA (Homo sapiens, UniProt Q04609); experiment: PSMA affinity (IC50) on LNCaP cells, competition with [125I]I-BA-KuE; assay type: binding
T2 construct: host or cells: LNCaP cells
T2 sequence (Q04609 whole entry): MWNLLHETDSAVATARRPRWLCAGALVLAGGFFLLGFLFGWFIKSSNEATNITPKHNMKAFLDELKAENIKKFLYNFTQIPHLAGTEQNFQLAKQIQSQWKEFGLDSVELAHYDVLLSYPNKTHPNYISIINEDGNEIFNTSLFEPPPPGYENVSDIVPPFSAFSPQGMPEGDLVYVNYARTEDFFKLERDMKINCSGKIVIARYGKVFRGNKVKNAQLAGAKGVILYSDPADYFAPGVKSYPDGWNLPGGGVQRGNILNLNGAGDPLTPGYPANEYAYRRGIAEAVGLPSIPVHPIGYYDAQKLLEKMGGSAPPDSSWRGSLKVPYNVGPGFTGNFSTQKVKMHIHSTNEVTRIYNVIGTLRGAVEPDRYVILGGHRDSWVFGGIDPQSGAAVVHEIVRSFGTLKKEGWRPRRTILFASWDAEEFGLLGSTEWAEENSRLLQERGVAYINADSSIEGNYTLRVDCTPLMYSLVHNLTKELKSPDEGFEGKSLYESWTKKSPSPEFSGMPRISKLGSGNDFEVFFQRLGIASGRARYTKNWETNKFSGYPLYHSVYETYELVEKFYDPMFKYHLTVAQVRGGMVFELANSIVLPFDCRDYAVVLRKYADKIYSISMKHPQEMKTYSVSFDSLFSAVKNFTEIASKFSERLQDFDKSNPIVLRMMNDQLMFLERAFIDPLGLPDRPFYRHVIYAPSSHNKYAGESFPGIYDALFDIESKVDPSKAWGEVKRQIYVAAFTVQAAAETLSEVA
Procedure: A mixture of trypsin and EDTA (0.05%, 0.02%) in PBS (Biochrom GmbH, Berlin, Germany) was used to harvest cells. Cells were counted with a Neubauer hemocytometer (Paul Marienfeld, Lauda-Königshofen, Germany).
In the case of metal-complexed ligands, the crude reaction mixture was diluted analogously, without further purification. Cells were harvested 24±2 hours prior to the experiment and seeded in 24-well plates (1.5×10^5 cells in 1 mL/well). After removal of the culture medium, the cells were carefully washed with 500 μL of HBSS (1% BSA) and left 15 min on ice for equilibration in 200 μL HBSS (1% BSA). […] For each concentration, the experiment was performed in triplicate. After incubation on ice for 60 min, the experiment was terminated by removal of the medium and consecutive rinsing with 200 μL of HBSS (1% BSA). The media of both steps were combined in one fraction and represent the amount of free radioligand. Afterwards, the cells were lysed with 250 μL of NaOH (1 M in H2O) for at least 15 min. After a washing step with NaOH (250 μL, 1 M in H2O), both fractions, representing the amount of bound ligand, were united. Quantification of all collected fractions was accomplished in a γ-counter. IC50 values were calculated using GraphPad PRISM software (GraphPad Software Inc., La Jolla, United States). The whole PSMA-affinity determination was carried out at least three times per ligand.

[3] = n-octanol-water partition coefficient (log D7.4); assay type: physicochemical
Procedure: In the development process of alternative SiFA-analogs, the influence of the substitution pattern at the aromatic moiety on lipophilicity is of particular importance. […] Assuming to observe a better differentiation in properties of the various prosthetic groups, investigations were conducted on small model peptides. Corresponding log D7.4-values (n≥8) are depicted in FIG. 3.
Approximately 1 MBq of the [^177Lu]Lu-labeled tracer or 0.5 MBq of the [^18F]F-labeled tracer was dissolved in 1 mL of n-octanol/PBS (v/v=1:1) in a reaction vial (1.5 mL). After vigorous mixing of the suspension for 3 min at rt, the vial was centrifuged at 15000 g for 5 min (Biofuge 15, Heraus Sepatech, Osterode, Germany) and 100 μL aliquots of both layers were measured in a γ-counter. The experiment was repeated (n≥6).

[4] = biological target: T1, human serum albumin (HSA); experiment: Human serum albumin (HSA) binding by high performance affinity chromatography (HPAC); assay type: in vitro ADME; conditions: radiohybrid SSTR ligands, Table 4
Procedure: Investigations about the binding strength of the SiFA-MPs to human serum albumin (HSA) were conducted using high performance affinity chromatography (HPAC). The corresponding gold-standards ((4-SiFA)Bz-MPs) display—as expected from published as well as internal data—a quite strong HSA binding. This is associated with a comparably slow and unfavored blood clearance in vivo.

[5] = Biodistribution in LNCaP tumor-bearing male CB17-SCID mice; assay type: in vivo; conditions: 1 h p.i.
Excerpt: Data expressed as percentage of the injected dose per gram (% ID/g), mean±standard deviation. Data of [18F]F, ^natGa-rhPSMA-7.3 were previously published by our group. (2)
Mice were used for experiments when tumors had grown to a diameter of 2-6 mm (4-20 weeks after inoculation).
Results are all decay-corrected and given in % injected dose per gram of tissue (% ID/g).

[6] = 1 h p.i.; previously published data; cited from earlier work

T1 sequence (P02768 25-609): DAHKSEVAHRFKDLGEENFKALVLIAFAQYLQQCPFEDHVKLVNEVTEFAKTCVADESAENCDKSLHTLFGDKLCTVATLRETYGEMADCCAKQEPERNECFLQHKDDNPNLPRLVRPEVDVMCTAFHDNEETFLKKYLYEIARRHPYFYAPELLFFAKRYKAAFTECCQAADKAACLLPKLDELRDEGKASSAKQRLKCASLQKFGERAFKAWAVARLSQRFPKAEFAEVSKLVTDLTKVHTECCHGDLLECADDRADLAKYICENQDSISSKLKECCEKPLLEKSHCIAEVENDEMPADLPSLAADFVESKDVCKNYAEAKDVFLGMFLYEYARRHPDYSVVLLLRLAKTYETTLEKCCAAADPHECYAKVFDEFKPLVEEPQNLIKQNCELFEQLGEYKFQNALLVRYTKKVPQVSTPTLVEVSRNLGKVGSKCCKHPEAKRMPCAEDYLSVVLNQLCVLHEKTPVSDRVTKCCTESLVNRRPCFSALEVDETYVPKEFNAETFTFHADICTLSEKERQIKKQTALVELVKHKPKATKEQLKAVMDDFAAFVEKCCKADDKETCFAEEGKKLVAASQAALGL

SMILES: Nc1ccccc1 [Aniline]
- lit. HSA [%] [1]: 14.06%
- Log K HSA [2]: −0.79

SMILES: O=C(O)c1ccccc1 [Benzoic Acid]
- lit. HSA [%] [1]: 34.27%

SMILES: CC(C)(C)[Si](F)(c1ccc(C(=O)NCCCC[C@H](NC(=O)N[C@@H](CCC(=O)O)C(=O)O)C(=O)O)cc1)C(C)(C)C [Entry 1]
- IC50 (PSMA): 327 ± 73 nM
- logD7.4 (n = 6) ([3]; pH 7.4): −1.95 ± 0.09

SMILES: C[C@@H](O)[C@H](NC(=O)[C@@H]1CSSC[C@H](NC(=O)[C@@H](Cc2ccccc2)NC(=O)CN2CCN(CC(=O)O)CCN(CC(=O)NCCNC(=O)c3cc(C(=O)O)cc([Si](F)(C(C)(C)C)C(C)(C)C)c3)CCN(CC(=O)O)CC2)C(=O)N[C@@H](Cc2ccc(O)cc2)C(=O)N[C@H](Cc2c[nH]c3ccccc23)C(=O)N[C@@H](CCCCN)C(=O)N[C@@H]([C@@H](C)O)C(=O)N1)C(=O)O [Entry 4, ^natGa-(5-SiFA)Ip-EDA-DOTATATE, metal not drawn]
- HSA binding (HPAC) [%] [4]: 97.4%
- logD7.4 (n = 6) ([3]; 18F-labeled compound, SSTR ligands): −0.67 ± 0.03

SMILES: COc1ccc(Cl)cc1C(=O)NCCc1ccc(S(=O)(=O)NC(=O)NC2CCCCC2)cc1 [Glibenclamide]
- lit. HSA [%] [1]: 99.00%
- Log K HSA [2]: 1.69

SMILES: CCCC[C@@H](C(=O)N[C@@H](CC(=O)O)C(=O)N[C@@H](Cc1cccc2ccccc12)C(N)=O)N(C)C(=O)[C@H](Cc1c[nH]c2ccccc12)NC(=O)CNC(=O)[C@H](Cc1ccc(O)cc1)NC(=O)[C@H](C)NC(=O)[C@@H](CCC(=O)O)NC(=O)CN1CCN(CC(=O)O)CCN(CC(=O)O)CCN(CC(=O)O)CC1 [Lu-DOTA-MGS5]
- logD ([3]; pH 7.4): -2.25

SMILES: CC(C)(C)[Si](F)(c1cccc(C(=O)NCCCC[C@H](NC(=O)N[C@@H](CCC(=O)O)C(=O)O)C(=O)O)c1)C(C)(C)C [PSMA-2]
- increase in affinity (PSMA; shift of silyl group from para (PSMA-1) to meta position): more than 20 fold

SMILES: CC(C)(C)[Si](F)(c1cc(C(=O)O)cc(C(=O)NCCCC[C@H](NC(=O)N[C@@H](CCC(=O)O)C(=O)O)C(=O)O)c1)C(C)(C)C [PSMA-3]
- further improvement of affinity, factor (PSMA; attaching a carboxylic acid, compared to PSMA-2): two
- accumulation in intestine [5]: 17.7±1.6 % ID/g
- accumulation in liver [5]: 7.2±4.8 % ID/g
- blood value [5]: 0.55 % ID/g
- bone uptake [5]: 1.16±0.22 % ID/g
- kidney value [5]: 67.1±13.9 % ID/g

SMILES: Oc1ccccc1 [Phenol]
- lit. HSA [%] [1]: 20.69%
- Log K HSA [2]: −0.59

SMILES: CCCN(CCC)S(=O)(=O)c1ccc(C(=O)O)cc1 [Probenecid]
- lit. HSA [%] [1]: 95.00%

SMILES: CC(C)(C)[Si](F)(c1ccc(C(=O)NC[C@@H](NC(=O)CC[C@@H](C(=O)O)N2CCN(CC(=O)O)CCN(CC(=O)O)CCN(CC(=O)O)CC2)C(=O)N[C@H](CCCCC(=O)NCCC(=O)NCCC[C@@H](NC(=O)CC[C@H](NC(=O)N[C@@H](CCC(=O)O)C(=O)O)C(=O)O)C(=O)O)C(=O)O)cc1)C(C)(C)C [[^18F]F, ^natGa-rhPSMA-7.3, metal not drawn]
- blood value [6]: 0.96 % ID/g
- bone uptake [6]: 0.38±0.32 % ID/g
